Assay results: ChEMBL document CHEMBL1201862, “PubChem BioAssay data set” (2004)
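Grown in 96-well plates, cells were treated for 48 hours with each compound at five concentrations. Insufficient inhibition: endpoint recorded as highest concentration tested. GI50: concentration for 50% inhibition of growth.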 Active and inactive are the calls of the source. Cut-off read from the data, not from the text of the source: active = GI50 up to about 1.1 µM and inactive = higher.

Assays:
Assay in all cases: DTP human tumour cell line panel, 48 h
[1] = system: K562
[2] = system: SK-MEL-28
[3] = system: NCI-H460
[4] = system: SK-MEL-2
[5] = system: MDA-MB-231
[6] = system: SF-539
[7] = system: SNB-75
[8] = system: MCF7
[9] = system: HCT-15
[10] = system: PC-3
[11] = system: SK-MEL-5
[12] = system: EKVX
[13] = system: Hs-578T
[14] = system: ACHN
[15] = system: COLO 205
[16] = system: MDA-MB-435
[17] = system: SR
[18] = system: BT-549
[19] = system: RXF 393
[20] = system: MOLT-4

COc1cc(C(=O)O)ccc1OS(=O)(=O)O
GI50 [1]: > 100 µM (inactive)
GI50 [2]: > 100 µM (inactive)
GI50 [3]: > 100 µM (inactive)
GI50 [4]: > 100 µM (inactive)
GI50 [5]: > 100 µM (inactive)
GI50 [6]: > 100 µM (inactive)
GI50 [7]: > 100 µM (inactive)
GI50 [8]: > 100 µM (inactive)
GI50 [9]: > 100 µM
GI50 [10]: > 100 µM (inactive)
GI50 [11]: > 100 µM (inactive)
GI50 [12]: > 100 µM (inactive)
GI50 [13]: > 100 µM (inactive)
GI50 [14]: > 100 µM (inactive)
GI50 [15]: > 100 µM (inactive)
GI50 [16]: > 100 µM (inactive)
GI50 [17]: > 100 µM (inactive)
GI50 [18]: > 100 µM (inactive)
GI50 [19]: 30.3 µM (inactive)
GI50 [20]: > 100 µM (inactive)

Cc1nccn1S(=O)(=O)c1ccc(Br)cc1Br
GI50 [1]: 29.1 µM (inactive)
GI50 [2]: 48.9 µM (inactive)
GI50 [3]: 38.4 µM (inactive)
GI50 [4]: 22.1 µM (inactive)
GI50 [5]: 19.1 µM (inactive)
GI50 [6]: 22.6 µM (inactive)
GI50 [7]: 12.5 µM (inactive)
GI50 [8]: 37.5 µM (inactive)
GI50 [9]: 28.4 µM
GI50 [10]: 33 µM (inactive)
GI50 [11]: 19.9 µM (inactive)
GI50 [12]: 26.9 µM (inactive)
GI50 [13]: 41.1 µM (inactive)
GI50 [14]: 54.1 µM (inactive)
GI50 [15]: 18.6 µM (inactive)
GI50 [16]: 19.5 µM (inactive)
GI50 [17]: 24.7 µM (inactive)
GI50 [18]: 56.2 µM (inactive)
GI50 [19]: 23 µM (inactive)
GI50 [20]: 29 µM (inactive)

O=[N+]([O-])O [NITRIC ACID]
GI50 [1]: > 100 µM (inactive)
GI50 [2]: > 100 µM (inactive)
GI50 [3]: > 100 µM (inactive)
GI50 [4]: > 100 µM (inactive)
GI50 [5]: > 100 µM (inactive)
GI50 [6]: > 100 µM (inactive)
GI50 [7]: > 100 µM (inactive)
GI50 [8]: > 100 µM (inactive)
GI50 [9]: > 100 µM
GI50 [10]: > 100 µM (inactive)
GI50 [11]: > 100 µM (inactive)
GI50 [12]: > 100 µM (inactive)
GI50 [13]: > 100 µM (inactive)
GI50 [14]: > 100 µM (inactive)
GI50 [15]: > 100 µM (inactive)
GI50 [16]: > 100 µM (inactive)
GI50 [17]: 77.1 µM (inactive)
GI50 [18]: > 100 µM (inactive)
GI50 [19]: > 100 µM (inactive)
GI50 [20]: > 100 µM (inactive)

Cc1cn2c(/C=C3/C(=O)Nc4ccccc43)c(C)nc2s1
GI50 [1]: 0.431 µM (active)
GI50 [2]: 5.96 µM (inactive)
GI50 [3]: 0.653 µM (active)
GI50 [4]: 1.32 µM (inactive)
GI50 [5]: 1.48 µM (inactive)
GI50 [6]: 1.33 µM (inactive)
GI50 [7]: 3.79 µM (inactive)
GI50 [8]: 0.547 µM (active)
GI50 [9]: 0.679 µM
GI50 [10]: 1.3 µM (inactive)
GI50 [11]: 0.516 µM (active)
GI50 [12]: 6.11 µM (inactive)
GI50 [13]: 1.99 µM (inactive)
GI50 [14]: 6.07 µM (inactive)
GI50 [15]: 0.433 µM (active)
GI50 [16]: 0.138 µM (active)
GI50 [17]: 0.507 µM (active)
GI50 [18]: 3.95 µM (inactive)
GI50 [19]: 2.6 µM (inactive)
GI50 [20]: 0.581 µM (active)

COc1ccc(CNC2=Nc3ccncc3S(=O)(=O)N2c2ccccc2)cc1
GI50 [1]: 29 µM (inactive)
GI50 [2]: 21.6 µM (inactive)
GI50 [3]: 43.1 µM (inactive)
GI50 [4]: 41.7 µM (inactive)
GI50 [5]: > 100 µM (inactive)
GI50 [6]: 4.74 µM (inactive)
GI50 [7]: 39.1 µM (inactive)
GI50 [8]: 38.5 µM (inactive)
GI50 [9]: 34.3 µM
GI50 [10]: 53.6 µM (inactive)
GI50 [11]: 19 µM (inactive)
GI50 [12]: 65 µM (inactive)
GI50 [13]: 33.8 µM (inactive)
GI50 [14]: 34 µM (inactive)
GI50 [15]: > 100 µM (inactive)
GI50 [16]: 24.9 µM (inactive)
GI50 [17]: 23.3 µM (inactive)
GI50 [18]: 23.2 µM (inactive)
GI50 [19]: 50.7 µM (inactive)
GI50 [20]: 19 µM (inactive)

O=C(O)c1c2c(cc3c1CC1(Cc4cc5c(cc4C1=O)CCC5)C3)CCC2 (stereo not given)
GI50 [1]: 52.4 µM (inactive)
GI50 [2]: 26.9 µM (inactive)
GI50 [3]: 71.1 µM (inactive)
GI50 [4]: > 100 µM (inactive)
GI50 [5]: > 100 µM (inactive)
GI50 [6]: > 100 µM (inactive)
GI50 [7]: > 100 µM (inactive)
GI50 [8]: 42.4 µM (inactive)
GI50 [9]: 74.1 µM
GI50 [10]: > 100 µM (inactive)
GI50 [11]: > 100 µM (inactive)
GI50 [12]: 87.5 µM (inactive)
GI50 [13]: > 100 µM (inactive)
GI50 [14]: 56.4 µM (inactive)
GI50 [15]: 52.4 µM (inactive)
GI50 [16]: > 100 µM (inactive)
GI50 [17]: 20.7 µM (inactive)
GI50 [18]: 86.3 µM (inactive)
GI50 [19]: 92.9 µM (inactive)
GI50 [20]: 50.8 µM (inactive)
